{
  "source": "patent US12691130B2",
  "about": "“Compositions and methods for improving cognitive function” (Diamond Therapeutics Inc., priority 2019, dated 2026)",
  "key": {"[1]": {"system": "Long Evans rats", "assay": "5CSRTT with 10 s ITI, premature (PREM) and perseverative (PSV) responses", "format": "in vivo", "details": "0.05 mg/kg S.C., 24 rats", "experimental": "A) Graphs show increase in PREM and PSV responses under a 5 second inter-trial interval (ITI) which establishes a baseline (Base) and a 10 second ITI across 24 animals across two doses of psilocybin (0.05 mg/kg and 0.1 mg/kg). Standard deviation is indicated by error bars; asterisks (*) indicate significance vs. vehicle (P=0.05) using T-test. B) Graphs show effects of psilocybin on PREM and PSV in low performer and high performer subgroups. Standard error of the mean is indicated by error bars; asterisks (*) indicate significance vs. vehicle (P<0.01) using T-test. High performers are defined as rats with the highest tertile of premature responses in the baseline test; low performers are rats with the bottom tertile of premature responses in the baseline test.\nExperiments were conducted to test psilocybin doses in the range of 0.05-0.2 mg/kg psilocybin administered S.C. across progressive ratio (PR) and 5-choice serial reaction time task (5CSRTT) to examine the effect of psilocybin on endophenotypes of motivation and attention. In each study, a population of out-bred Long Evans rats was first tested as a group for response to the PR and 5CSRTT. Each group was then divided into sub-groups by tertiles according to performance, and then exposed to various dose levels immediately prior to re-testing at various psilocybin dose levels. […]"}, "[2]": {"system": "Long Evans rats", "assay": "5-choice serial reaction time task (5CSRTT), standard conditions, 5 s ITI", "format": "in vivo", "experimental": "Asterisk (*) indicates statistical difference vs. vehicle. […] High performers are defined as rats completing the highest tertile of Hits or Correct nose-pokes in the baseline test; low performers are rats completing the bottom tertile of Hits or Correct nose-pokes in the baseline test.\nAsterisk (*) indicates statistical significance vs. vehicle.\n(§1) Experiments were conducted to test psilocybin doses in the range of 0.05-0.2 mg/kg psilocybin administered S.C. across progressive ratio (PR) and 5-choice serial reaction time task (5CSRTT) to examine the effect of psilocybin on endophenotypes of motivation and attention. In each study, a population of out-bred Long Evans rats was first tested as a group for response to the PR and 5CSRTT. Each group was then divided into sub-groups by tertiles according to performance, and then exposed to various dose levels immediately prior to re-testing at various psilocybin dose levels.\nThe 5CSRTT involves evaluating test subject response to a brief visual stimulus (Higgins, Guy & Silenieks, Leonardo. (2017). Rodent Test of Attention and Impulsivity: The 5-Choice Serial Reaction Time Task: The 5-Choice Serial Reaction Time Task. 10.1002/cpph.27). Animals are trained to make a nose-poke response to a stimulus location in order to collect a food reward. The task allows the experimenter to measure animal performance in multiple domains including: • Attention • Impulsivity • Perseveration • Speed of response\nA strength of the test is its flexible configuration to challenge test subjects: • Standard test conditions (0.75 s stimulus duration (SD), 5 s inter-trial interval (ITI), 100 trials) • Multiple short stimulus duration (mSD) (0.03-1 s SD) • Fixed long ITI (5 s vs. 10 s ITI) • Multiple ultrashort ITI (2-5 s ITI) • Extended 250 trials\nAsterisk (*) indicates statistical significance vs. vehicle. (FIG. 3A).\nWhen this population is segmented into tertiles according to performance based on accuracy (% correct, calculated as #correct/(#correct+ #incorrect)*100), the lowest performing tertile (N=8) are considered to be low attentive and potentially representative of a low attentive endophenotype of depression (FIG. 6A). Low attentive rats also score poorly on % hit (FIG. 6B) and have a slower response speed (FIG. 6D). […] Asterisk (*) indicates statistical significance vs. vehicle."}, "[3]": {"system": "rats", "assay": "Dose finding: locomotor activity (distance travelled)", "format": "in vivo", "excerpt": "Stimulant drugs cause far larger increases in distance travelled with escalating doses, reflective of a direct motor stimulant property not seen with psilocybin."}, "[4]": {"molecular_target": "5-HT2A receptor (Rattus norvegicus, UniProt P14842)", "sequence (P14842 whole entry)": "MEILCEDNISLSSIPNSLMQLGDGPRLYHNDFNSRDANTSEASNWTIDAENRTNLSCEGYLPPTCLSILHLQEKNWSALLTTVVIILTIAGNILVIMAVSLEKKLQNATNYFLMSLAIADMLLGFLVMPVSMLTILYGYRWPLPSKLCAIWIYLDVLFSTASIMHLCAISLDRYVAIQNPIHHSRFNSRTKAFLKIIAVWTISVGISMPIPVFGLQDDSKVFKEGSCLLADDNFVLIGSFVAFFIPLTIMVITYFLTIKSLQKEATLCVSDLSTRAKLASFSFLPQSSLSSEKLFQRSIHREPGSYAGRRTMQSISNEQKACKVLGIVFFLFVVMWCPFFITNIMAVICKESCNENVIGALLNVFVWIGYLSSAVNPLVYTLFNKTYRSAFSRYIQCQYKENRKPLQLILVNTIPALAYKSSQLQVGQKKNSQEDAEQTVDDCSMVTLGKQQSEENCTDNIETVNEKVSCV", "assay": "Dose finding: behavioral syndrome, wet dog shakes (WDS) and back muscle contractions (BMC)", "details": "rats", "experimental": "The total number (N) of wet dog shakes (WDS) and back muscle contractions (BMC) is plotted against dose (mg/kg).\nPsilocybin was tested at a dose range of 0.03-10.0 mg/kg administered sub-cutaneously (S.C.) Behavioral syndrome including wet dog shakes (WDS) and back muscle contractions (BMC) are characteristic of 5-HT2A receptor activity and potentially indicative of psychomotor signs. […] There is a parallel between behaviors such as WDS in rats and hallucination in humans (Behavioral Neurobiology of Psychedelic Drugs, Halberstadt, Adam, Vollenweider, Franz X., Nichols, David E. (Eds.), Springer, 2018, p 161)."}, "[5]": {"assay": "Psilocybin plasma pharmacokinetics after s.c. psilocybin", "format": "in vivo", "details": "rats", "experimental": "Psilocybin doses of 0.05, 0.1, 1, 10 mg/kg were used to evaluate psilocybin and psilocin PK in rats.\nDetails of the plasma concentration studies are shown in Tables 1-8 (psilocybin) and 9-16 (psilocin). Values in italics are below the lower level of quantitation (BLQ, <1 ng/mL) but were included in calculations. Values in bold and underlined are considered to be outliers and were omitted from calculations. Measured dosing solution concentrations were 0.0460, 0.0967, 0.948 and 9.65 mg/mL for 0.05, 0.1, 1 and 10 […]."}, "[6]": {"system": "Long Evans rats", "assay": "Progressive ratio (PR) test of motivation", "format": "in vivo", "experimental": "High responders are defined as rats completing the highest tertile of lever presses in the baseline test; low responders are rats completing the bottom tertile of lever presses in the baseline test. Asterisk (*) indicates statistical significance between high and low responders.\nas §1\nThe PR test is used to answer how willing the test subject is to work for food (i.e. test of motivation). A single 45 mg food pellet (i.e. reinforcer) is made available to the test animal based on lever press response. To obtain each successive pellet, the animal must make increasingly more lever presses. Typically, a progression of 2, 4, 6, 9, 12, 15, 20, 25, 32, 40, 50, 62, 77, 95, 118, etc. is used, derived from the equation: […]\nAt some point, the animal gives up as the motor demands to obtain a single pellet are not deemed worthwhile (i.e. animal reaches “break point” defined as animal's failure to earn a food pellet in 20 minutes).\nPsilocybin was administered to rats S.C. at doses of 0.05, 0.1 and 0.2 mg/kg.\nRats were then sub-grouped into tertiles based on the number of lever presses for food at baseline, so that within the test population of 36 animals, 12 animals were identified as low responders, characterized by low motivation and potentially corresponding to low motivation endophenotype representative of clinical depression. Twelve animals were identified as high responders. There was a statistically significant difference between the high and low responders. […] This represents a motivational enhancing effect of psilocybin in the cohort corresponding to a low motivation endophenotype representative of clinical depression."}},
  "note": "“Also recorded” adds a separate entry of the source.",
  "data": [
    {"smiles": "CN(C)CCc1c[nH]c2cccc(OP(=O)(O)O)c12", "note": "[psilocybin, 4-phosphoryloxy-N,N-dimethyltryptamine]", "values": [
      {"measurement": "PREM and PSV responses", "setting": "[1]", "result": "an increase (p=0.05, t-test) increase in PREM and PSV responses"},
      {"measurement": "pro-cognitive effect, % hit", "setting": "[2]; 0.05 mg/kg S.C., 24 rats, 75 s SD, 5 S ITI, 100 trials, vs. vehicle", "result": "increased (p=0.05, t-test) pro-cognitive effect"},
      {"measurement": "procognitive effect, % correct", "setting": "[2]; 0.05 mg/kg S.C., 24 rats, standard conditions", "result": "slight non-significant increase in procognitive effect"},
      {"measurement": "response speed", "setting": "[2]; 0.05 mg/kg, low attentive cohort, vs. vehicle", "result": "increased response speed in the low attentive cohort compared with vehicle; also recorded: Significant improvements"},
      {"measurement": "effect on accuracy (% correct and % hit)", "setting": "[2]; 0.05 and 0.1 mg/kg, low attentive subgroup (N=8), vs. vehicle", "result": "strongly evident in the low attentive subgroup compared with vehicle; also recorded: Significant improvements"},
      {"measurement": "distance travelled", "setting": "[3]; high doses", "result": "slightly decreased distanced travelled"},
      {"measurement": "increase in distance travelled", "setting": "[3]; low doses", "result": "0.3-0.4 fold"},
      {"measurement": "signs of behavioral syndrome (WDS, BMC)", "setting": "[4]; 0.3 mg/kg I.P and higher", "result": "significant signs of behavior syndrome"},
      {"measurement": "signs of behavioral syndrome (WDS, BMC)", "setting": "[4]; 0.03-0.1 mg/kg S.C.", "result": "no signs of behavioral syndrome"},
      {"measurement": "AUC0-tlast, psilocybin, Mean", "setting": "[5]; 0.05 mg/kg s.c.", "result": 10.7, "unit": "ng·h/mL"},
      {"measurement": "Cmax, psilocybin, Mean", "setting": "[5]; 0.05 mg/kg s.c.", "result": 18.9, "unit": "ng/mL"},
      {"measurement": "Cmax/Dose, psilocybin, Mean", "setting": "[5]; 0.05 mg/kg s.c.", "result": 377, "unit": "kg·ng/mL/mg"},
      {"measurement": "tmax, psilocybin, Mean", "setting": "[5]; 0.05 mg/kg s.c.", "result": 36, "unit": "min"},
      {"measurement": "AUC0-tlast, psilocybin, Mean", "setting": "[5]; 0.1 mg/kg s.c.", "result": 11.4, "unit": "ng·h/mL"},
      {"measurement": "Cmax, psilocybin, Mean", "setting": "[5]; 0.1 mg/kg s.c.", "result": 31.4, "unit": "ng/mL"},
      {"measurement": "Cmax/Dose, psilocybin, Mean", "setting": "[5]; 0.1 mg/kg s.c.", "result": 314, "unit": "kg·ng/mL/mg"},
      {"measurement": "tmax, psilocybin, Mean", "setting": "[5]; 0.1 mg/kg s.c.", "result": 19.3, "unit": "min"},
      {"measurement": "AUC0-inf, psilocybin, Mean", "setting": "[5]; 1.0 mg/kg s.c.", "result": 47.9, "unit": "ng·h/mL"},
      {"measurement": "AUC0-inf/Dose, psilocybin, Mean", "setting": "[5]; 1.0 mg/kg s.c.", "result": 47.9, "unit": "kg·ng·h/mL/mg"},
      {"measurement": "AUC0-tlast, psilocybin, Mean", "setting": "[5]; 1.0 mg/kg s.c.", "result": 53.1, "unit": "ng·h/mL"},
      {"measurement": "Apparent t1/2, psilocybin, Mean", "setting": "[5]; 1.0 mg/kg s.c.", "result": 26.7, "unit": "min"},
      {"measurement": "Cmax, psilocybin, Mean", "setting": "[5]; 1.0 mg/kg s.c.", "result": 78.3, "unit": "ng/mL"},
      {"measurement": "Cmax/Dose, psilocybin, Mean", "setting": "[5]; 1.0 mg/kg s.c.", "result": 78.3, "unit": "kg·ng/mL/mg"},
      {"measurement": "MRT0-inf, psilocybin, Mean", "setting": "[5]; 1.0 mg/kg s.c.", "result": 44.8, "unit": "min"},
      {"measurement": "tmax, psilocybin, Mean", "setting": "[5]; 1.0 mg/kg s.c.", "result": 21.4, "unit": "min"},
      {"measurement": "AUC0-inf, psilocybin, Mean", "setting": "[5]; 10 mg/kg s.c.", "result": 2156, "unit": "ng·h/mL"},
      {"measurement": "AUC0-inf/Dose, psilocybin, Mean", "setting": "[5]; 10 mg/kg s.c.", "result": 216, "unit": "kg·ng·h/mL/mg"},
      {"measurement": "AUC0-tlast, psilocybin, Mean", "setting": "[5]; 10 mg/kg s.c.", "result": 1707, "unit": "ng·h/mL"},
      {"measurement": "Apparent t1/2, psilocybin, Mean", "setting": "[5]; 10 mg/kg s.c.", "result": 34, "unit": "min"},
      {"measurement": "Cmax, psilocybin, Mean", "setting": "[5]; 10 mg/kg s.c.", "result": 3595, "unit": "ng/mL"},
      {"measurement": "Cmax/Dose, psilocybin, Mean", "setting": "[5]; 10 mg/kg s.c.", "result": 359, "unit": "kg·ng/mL/mg"},
      {"measurement": "MRT0-inf, psilocybin, Mean", "setting": "[5]; 10 mg/kg s.c.", "result": 43, "unit": "min"},
      {"measurement": "tmax, psilocybin, Mean", "setting": "[5]; 10 mg/kg s.c.", "result": 30, "unit": "min"},
      {"measurement": "PR food responding (lever presses, break point)", "setting": "[6]; 0.05 mg/kg S.C., low responder subgroup (12 rats)", "result": "an increase in food responding in low responder subgroup; also recorded: Significant improvements"},
      {"measurement": "PR food responding", "setting": "[6]; 0.1 mg/kg S.C., low responder subgroup (12 rats)", "result": "did not produce an increase in food responding"},
      {"measurement": "number of lever presses or break points (rewards earned)", "setting": "[6]; 0.05, 0.1 and 0.2 mg/kg S.C., entire study population of 36 rats", "result": "None of these doses were observed to cause obvious changes in the number of lever presses or break points"},
      {"measurement": "PR response (lever presses)", "setting": "[6]; 0.05-0.2 mg/kg S.C., high responder subgroup (12 rats)", "result": "no effect on response in high responder subgroup"},
      {"measurement": "detrimental effects on performance (motivation, motor control, attention, response speed)", "setting": "[6]; PR 0.05-0.2 mg/kg and 5CSRTT 0.05-0.1 mg/kg S.C.", "result": "no detrimental effects of psilocybin were noted on performance"}
    ]}
  ]
}
